Experimental data from US20250324973A1, “Pest Control Composition and Control Method” (priority 2021, published 2025).

Columns and labels:
Format in all cases: in vivo
[1] = system: diamondback moth, susceptible line or reduced susceptible line; assay: Test Example 19: spray on cabbage seedlings, mortality rate; details: diamondback moth 3rd-instar larvae on cabbage; 0.05-200 ppm; five days
Experimental: Natural pyrethrin or MX is formulated according to the method described in the Formulation Example 1. Each of the above formulations is diluted with water containing 0.05% by volume of a spreading agent (product name: Shindain (registered trademark)) so that the concentration of active ingredient may be 0.05 ppm, 0.2 ppm, 0.8 ppm, 3.1 ppm, 12.5 ppm, 50 ppm or 200 ppm. Phoenix water dispersible granule (Active ingredient: flubendiamide, manufactured by NIHON NOHYAKU CO., LTD), PREVATHON flowable 5 (Active ingredient: chlorantraniliprole, manufactured by Nissan Chemical Corporation) and BENEVIA OD (Active ingredient: cyantraniliprole, manufactured by KUMIAI CHEMICAL INDUSTRY CO., LTD.), which are commercial products, are diluted with water containing 0.05% by volume of a spreading agent (product name: Shindain (registered trademark)), respectively so that the concentration of active ingredient may be 0.05 ppm, 0.2 ppm, 0.8 ppm, 3.1 ppm, 12.5 ppm, 50 ppm or 200 ppm. The resulting dilution is sprayed to seedlings (at the 3rd to 4th true leaf unfolding stage) of cabbage (Brassicae oleracea) planted in a container at a rate of 20 ml/seedling. After that, 10 3rd-instar larvae of diamondback moth of a susceptible line (a line that have been bred successively in Health & Crop Sciences Research Laboratory of Sumitomo Chemical Co., Ltd.) or diamondback moth of a reduced susceptible line (a line that have been bred successively without selection after collecting in Kumamoto prefecture in 2016) are released thereto. Five days later, the number of surviving insects is counted, and a mortality rate of insect is calculated by formula 3). On the other hand, cabbages are cultivated in the same way as in the treated plot, except that the dilution containing natural pyrethrin or MX is not sprayed (this is referred to as an untreated plot).

[2] = system: small brown planthopper, susceptible line or reduced susceptible line; assay: Test Example 20: spray on rice seedlings, mortality rate; details: small brown planthopper 3rd-instar larvae on rice; 0.05-200 ppm; six days
Experimental: Natural pyrethrin or MX is formulated according to the method described in the Formulation Example 1. Similarly, flupyradifuron and flupyrimin are formulated according to the method described in the Formulation Example 1, respectively. Each of the above formulations is diluted with water containing 0.05% by volume of a spreading agent (product name: Shindain (registered trademark)) so that the concentration of active ingredient may be 0.05 ppm, 0.2 ppm, 0.8 ppm, 3.1 ppm, 12.5 ppm, 50 ppm or 200 ppm. Admire water dispersible granule (Active ingredient: imidacloprid, manufactured by Bayer CropScience K.K.), TREBON emulsifiable concentrate (Active ingredient: etofenprox, manufactured by Mitsui Chemicals Agro, Inc.), PRINCE flowable (Active ingredient: fipronil, manufactured by BASF Japan Ltd.), KIRAPPU flowable (Active ingredient: ethiprole, manufactured by Bayer CropScience K.K.), and APPLAUD flowable (Active ingredient: buprofezin, manufactured by NIHON NOHYAKU CO., LTD), which are commercial products, are diluted with water containing 0.05% by volume of a spreading agent (product name: Shindain (registered trademark)), respectively so that the concentration of active ingredient may be 0.05 ppm, 0.2 ppm, 0.8 ppm, 3.1 ppm, 12.5 ppm, 50 ppm or 200 ppm. The resulting dilution is sprayed to seedlings (at the 2.5-leaf stage) of rice (Oryza sativa) planted in a container at a rate of 10 ml/seedling. After that, 20 3rd-instar larvae of small brown planthopper of a susceptible line (a line that have been bred successively in Health & Crop Sciences Research Laboratory of Sumitomo Chemical Co., Ltd.) or small brown planthopper of a reduced susceptible line (a line that have been bred successively without selection after collecting in Nagasaki prefecture in 2016) are released thereto. Six days later, the number of surviving insects is observed, and a mortality rate of insect is calculated by the formula 2). On the other hand, rice is cultivated in the same way as in the treated plot, except that the dilution containing natural pyrethrin or MX is not sprayed (this is referred to as an untreated plot).

[3] = system: white-backed planthopper, susceptible line or reduced susceptible line; assay: Test Example 21: spray on rice seedlings, mortality rate; details: white-backed planthopper 3rd-instar larvae on rice; 0.05-200 ppm; six days
Experimental: Natural pyrethrin or MX is formulated according to the method described in the Formulation Example 1. Each of the above formulations is diluted with water containing 0.05% by volume of a spreading agent (product name: Shindain (registered trademark)) so that the concentration of active ingredient may be 0.05 ppm, 0.2 ppm, 0.8 ppm, 3.1 ppm, 12.5 ppm, 50 ppm or 200 ppm. PRINCE flowable (Active ingredient: fipronil, manufactured by BASF Japan Ltd.) and KIRAPPU flowable (Active ingredient: ethiprole, manufactured by Bayer CropScience K.K.), which are commercial products, are diluted with water containing 0.05% by volume of a spreading agent (product name: Shindain (registered trademark)), respectively so that the concentration of active ingredient may be 0.05 ppm, 0.2 ppm, 0.8 ppm, 3.1 ppm, 12.5 ppm, 50 ppm or 200 ppm. The resulting dilution is sprayed to seedlings (at the 2.5-leaf stage) of rice planted in a container at a rate of 10 ml/seedling. […] Six days later, the number of surviving insects is observed, and a mortality rate of insect is calculated by the formula 2). […]

[4] = system: cotton aphids, susceptible line or reduced susceptible line; assay: Test Example 17: spray on cucumber seedlings, control value; details: 0.05-200 ppm, 10 ml/seedling, six days after spraying
From the text: Natural pyrethrin or MX is formulated according to the method described in the Formulation Example 1. Similarly, triflumezopyrim, flupyradifuron, or flupyrimin is formulated according to the method described in the Formulation Example 1, respectively. Each dilution is obtained by diluting each of the above formulations with water containing 0.05% by volume of a spreading agent (product name: Shindain (registered trademark)) so that the concentration of active ingredient may be 0.05 ppm, 0.2 ppm, 0.8 ppm, 3.1 ppm, 12.5 ppm, 50 ppm or 200 ppm. Each dilution is obtained by diluting Admire wettable powder (Active ingredient: imidacloprid, manufactured by Bayer CropScience K.K.) and Actara water dispersible granule (Active ingredient: thiamethoxam, manufactured by Syngenta Japan K.K.), which are commercial products, with water containing 0.05% by volume of a spreading agent (product name: Shindain (registered trademark)) so that the concentration of active ingredient may be 0.05 ppm, 0.2 ppm, 0.8 ppm, 3.1 ppm, 12.5 ppm, 50 ppm or 200 ppm. Cucumber seedlings (at the second true leaf unfolding stage) planted in a container are inoculated with 30 cotton aphids (including all growth stages) which are a susceptible line (a line that have been bred successively in Health & Crop Sciences Research Laboratory of Sumitomo Chemical Co., Ltd.) or a reduced susceptible line (a line that have been bred successively without selection after collecting in Miyazaki prefecture in 2016). One day later, the resulting dilution is sprayed to the seedlings at a rate of 10 ml/seedling. On the other hand, cucumbers are cultivated in the same way as in the treated plot, except that the dilution containing natural pyrethrin or MX is not sprayed (this is referred to as an untreated plot). Six days after spraying, the number of surviving insects is observed, and a control value is calculated by formula 1).
Letters in the formula have the following meanings • Cb: The number of insects tested in the untreated plot • Cai: The number of surviving insects at the time of observation in the untreated plot • Tb: The number of tested insects in the treated plot • Tai: The number of surviving insects at the time of observation in the treated plot

[5] = system: brown planthopper, susceptible line or reduced susceptible line; assay: Test Example 18: spray on rice seedlings, mortality rate; details: brown planthopper 3rd-instar larvae on rice; 0.05-200 ppm; six days
Experimental: Natural pyrethrin or MX is formulated according to the method described in the Formulation Example 1. Similarly, flupyradifuron and flupyrimin are formulated according to the method described in the Formulation Example 4, respectively. Each of the above formulations is diluted with water containing 0.05% by volume of a spreading agent (product name: Shindain (registered trademark)) so that the concentration of active ingredient may be 0.05 ppm, 0.2 ppm, 0.8 ppm, 3.1 ppm, 12.5 ppm, 50 ppm or 200 ppm. Admire wettable powder (Active ingredient: imidacloprid, manufactured by Bayer CropScience K.K.), which is a commercial product, is diluted with water containing 0.05% by volume of a spreading agent (product name: Shindain (registered trademark)) so that the concentration of active ingredient may be 0.05 ppm, 0.2 ppm, 0.8 ppm, 3.1 ppm, 12.5 ppm, 50 ppm or 200 ppm. The resulting dilution is sprayed to seedlings (at the 2.5-leaf stage) of rice (Oryza sativa) planted in a container at a rate of 10 ml/seedling. After that, 20 3rd-instar larvae of brown planthopper of a susceptible line (a line that have been bred successively in Health & Crop Sciences Research Laboratory of Sumitomo Chemical Co., Ltd.) or brown planthopper of a reduced susceptible line (a line that have been bred successively without selection after collecting in Nagasaki prefecture in 2016) are released thereto. Six days later, the number of surviving insects is observed, and a mortality rate of insect is calculated by formula 2). On the other hand, rice is cultivated in the same way as in the treated plot, except that the dilution containing natural pyrethrin or MX is not sprayed (this is referred to as an untreated plot).

**Q.** With `CNC(=O)c1cc(Cl)cc(C)c1NC(=O)c1cc(Br)nn1-c1ncccc1Cl` [chlorantraniliprole] as the compound, how does the “effect (mortality rate) on the reduced susceptible line compared with the susceptible line” value [1] read?
**A.** low compared with that on the sensitive line

**Q.** For `CCOc1ccc(C(C)(C)COCc2cccc(Oc3ccccc3)c2)cc1` [etofenprox], which “effect (mortality rate) on the reduced susceptible line compared with the susceptible line” value [2] is on record?
**A.** low compared with that on the sensitive line

**Q.** With `CC[S+]([O-])c1c(C#N)nn(-c2c(Cl)cc(C(F)(F)F)cc2Cl)c1N` (centres unmarked) [ethiprole] as the compound, how does the “effect (mortality rate) on the reduced susceptible line compared with the susceptible line” value [3] read?
**A.** low compared with that on the sensitive line

**Q.** What about the “effect (mortality rate) on the reduced susceptible line compared with the susceptible line” value [2] of the same compound?
**A.** low compared with that on the sensitive line

**Q.** `CN1COCN(Cc2cnc(Cl)s2)/C1=N\[N+](=O)[O-]` [thiamethoxam] was tested. Which “effect (control value) on the reduced susceptible line compared with the susceptible line” value [4] did it give?
**A.** low compared with that on the sensitive line

**Q.** For `CNC(=O)c1cc(C#N)cc(C)c1NC(=O)c1cc(Br)nn1-c1ncccc1Cl` [cyantraniliprole], which “effect (mortality rate) on the reduced susceptible line compared with the susceptible line” value [1] is on record?
**A.** low compared with that on the sensitive line

**Q.** For `O=[N+]([O-])NC1=NCCN1Cc1ccc(Cl)nc1` [imidacloprid], which “effect (mortality rate) on the reduced susceptible line compared with the susceptible line” value [2] is on record?
**A.** low compared with that on the sensitive line

**Q.** What about the “effect (control value) on the reduced susceptible line compared with the susceptible line” value [4] of the same compound?
**A.** low compared with that on the sensitive line

**Q.** And the “effect (mortality rate) on the reduced susceptible line compared with the susceptible line” value [5]?
**A.** low compared with that on the sensitive line

**Q.** How did the “effect (mortality rate) on the reduced susceptible line compared with the susceptible line” value [3] turn out when `N#Cc1nn(-c2c(Cl)cc(C(F)(F)F)cc2Cl)c(N)c1[S+]([O-])C(F)(F)F` (centres unmarked) [fipronil] was run?
**A.** low compared with that on the sensitive line

**Q.** What about the “effect (mortality rate) on the reduced susceptible line compared with the susceptible line” value [2] of the same compound?
**A.** low compared with that on the sensitive line

**Q.** For `Cc1cc(C(F)(C(F)(F)F)C(F)(F)F)ccc1NC(=O)c1cccc(I)c1C(=O)NC(C)(C)CS(C)(=O)=O` [flubendiamide], which “effect (mortality rate) on the reduced susceptible line compared with the susceptible line” value [1] is on record?
**A.** low compared with that on the sensitive line

**Q.** With `O=C(N=c1ccccn1Cc1ccc(Cl)nc1)C(F)(F)F` [flupyrimin] as the compound, how does the “effect (mortality rate) on the reduced susceptible line compared with the susceptible line” value [2] read?
**A.** low compared with that on the sensitive line

**Q.** What about the “effect (control value) on the reduced susceptible line compared with the susceptible line” value [4] of the same compound?
**A.** low compared with that on the sensitive line

**Q.** And the “effect (mortality rate) on the reduced susceptible line compared with the susceptible line” value [5]?
**A.** low compared with that on the sensitive line

**Q.** Which “effect (control value) on the reduced susceptible line compared with the susceptible line” value [4] does the source give for `O=c1c(-c2cccc(C(F)(F)F)c2)c([O-])[n+](Cc2cncnc2)c2ccccn12` [triflumezopyrim] here?
**A.** low compared with that on the sensitive line

**Q.** How did the “effect (mortality rate) on the reduced susceptible line compared with the susceptible line” value [2] turn out when `CC(C)N1C(=O)N(c2ccccc2)CS/C1=N\C(C)(C)C` [buprofezin] was run?
**A.** low compared with that on the sensitive line

**Q.** Which “effect (mortality rate) on the reduced susceptible line compared with the susceptible line” value [2] does the source give for `O=C1C=C(N(Cc2ccc(Cl)nc2)CC(F)F)CO1` [flupyradifuron] here?
**A.** low compared with that on the sensitive line

**Q.** And the “effect (control value) on the reduced susceptible line compared with the susceptible line” value [4]?
**A.** low compared with that on the sensitive line

**Q.** What about the “effect (mortality rate) on the reduced susceptible line compared with the susceptible line” value [5] of the same compound?
**A.** low compared with that on the sensitive line
